In patent US20260132151A1, “NOVEL N,N-DIMETHYLTRYPTAMINE (DMT) DERIVATIVES AND USES THEREOF” (priority 2022, published 2026):
Entries after “also recorded” stand apart in the source; their conditions may differ. Read-outs that look alike come from different tables or passages of the source.

Tests used:
[1] = format: physicochemical; conditions: for stability of the prodrug (in words): 1% HCl, pH 7.4 and pH 8.0 compared; for release of DMT / conversion to DMT (in words): all tested pHs: 1% HCl, pH 7.4, pH 8.0; for degradation of the prodrug: essentially instantaneous, with liberation of DMT
Method: Four compounds (i.e., methyl carbamate [compound 8, Example 8], boc carbamate [compound 11, […]], pinacol boronic ester [compound 1, Example 1] and TFA-amide [compound 3, Example 3]) were tested for their stability in 1% hydrochloric acid (HCl) as well as in phosphate buffers (0.1 M) at pH 7.4 and pH 8.0, respectively. These conditions were selected to assess the chemical stability of these compounds at a pH corresponding to different physiological conditions. Dilute hydrochloric acid (pH 1) was used to mimic the low pH of gastric acid within the stomach, while potassium phosphate buffers of pH 7.4 and pH 8.0 were used to mimic conditions in human blood and small intestine, respectively.
4 mg of each test compound was diluted in 4 mL of either a 1% HCl solution or the respective phosphate buffer (0.1 M), resulting in a solution of 1 mg/mL each. Regarding the acidic testing with hydrochloric acid, 2 mL of aqueous test compound solutions were then added to 2 mL of 2% (v/v) in distilled water, yielding a final HCl concentration of […] (pH 0.5). Test solutions were incubated at 37° C. with constant stirring for approximately 21 hours. The concentrations of the parent compound were analyzed at different timepoints using LC/MS. The concentrations of the parent prodrug and released drug were expressed relative to the starting concentration of the parent prodrug.

SERT [2] = biological target: T1, SERT (Homo sapiens, UniProt P31645); assay: Uptake inhibition assay ([3H]5-HT) in HEK293-SERT cells; format: cell-based; parameters: expressed in transfected cells; conditions: for IC50: HEK293-SERT cells
T1 sequence (P31645 whole entry): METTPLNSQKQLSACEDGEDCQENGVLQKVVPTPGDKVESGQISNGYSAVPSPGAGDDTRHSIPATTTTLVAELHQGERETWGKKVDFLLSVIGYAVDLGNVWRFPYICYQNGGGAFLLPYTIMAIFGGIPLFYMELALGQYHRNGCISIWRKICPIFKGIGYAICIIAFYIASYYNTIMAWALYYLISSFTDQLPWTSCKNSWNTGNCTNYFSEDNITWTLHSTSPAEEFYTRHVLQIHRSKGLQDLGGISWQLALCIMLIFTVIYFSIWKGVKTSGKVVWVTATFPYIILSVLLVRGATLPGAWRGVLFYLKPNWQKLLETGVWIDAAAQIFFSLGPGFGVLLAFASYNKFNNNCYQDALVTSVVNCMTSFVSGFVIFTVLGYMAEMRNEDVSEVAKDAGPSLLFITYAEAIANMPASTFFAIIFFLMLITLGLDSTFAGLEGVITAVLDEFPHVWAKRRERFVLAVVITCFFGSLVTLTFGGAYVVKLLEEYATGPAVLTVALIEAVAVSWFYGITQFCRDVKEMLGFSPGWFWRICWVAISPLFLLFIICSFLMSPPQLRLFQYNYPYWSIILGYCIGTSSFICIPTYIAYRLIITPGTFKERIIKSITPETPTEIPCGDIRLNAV
Method: (§1) Human embryonic kidney (HEK) 293 cells stably expressing human SERT were maintained in humidified atmosphere (37° C., 5% CO2) in Dulbecco's Modified Eagle Medium (DMEM), supplemented with 10% heat-inactivated fetal calf serum (FCS), streptomycin (100 μg×100 mL^−1) and penicillin (100 U×100 mL^−1). Geneticin (50 μg×mL^−1) was used as selection antibiotic.
One day before the experiment, HEK293-SERT cells were seeded onto poly-D-lysine coated 96 well plates at a density of 30,000 cells per well in a final volume of 200 μL. For uptake experiments, the cell culture medium was replaced with 300 μL Krebs-HEPES buffer (KHB; 25 mM HEPES, 120 mM NaCl, 5 mM KCl, 1.2 mM CaCl2, 1.2 mM MgSO4, and 5 mM D-glucose, pH 7.3). Then, the buffer was replaced with various concentrations of test compounds for 5 minutes; subsequent to that, 0.1 μM [^3H]5-HT in KHB was added to yield a total volume of 50 μL in the well. For determination of non-specific uptake, paroxetine was used (3 μM).
Uptake was terminated after 60 s by washing the cells with 200 μL ice-cold KHB. Subsequently, the cells were lysed with 200 μL Ultima Gold™ XR liquid scintillation cocktail, and the amount of tritium in the cells was measured with a Wallac 1450 MicroBeta® TriLux liquid scintillation counter. Monoamine uptake data were fitted by nonlinear regression, Vmax and Km values were calculated from Michaelis Menten's least-squares fit with GraphPad Prism (Prism 9.0.2, GraphPad Software, San Diego, CA, USA).
We tested Example 1, Example 4, Example 13 in both uptake inhibition and release assays, and Example 15 in uptake inhibition assays. Drugs were tested either as the undecomposed prodrug or after treatment with 0.5% HCl at 37° C. for 24 hours in order to simulate digestion of the prodrug by gastric acid inside the body after peroral administration. DMT was tested dissolved only in DMSO.

SERT [3] = biological target: T1, SERT; assay: Release (efflux) assay in HEK293-SERT cells loaded with [3H]5-HT; format: cell-based; parameters: expressed in transfected cells; conditions: Examples dissolved in HCl, DMT in DMSO, compared with pCA (full releaser)
Method: as §1
The day prior to the assay, stably expressing HEK293-SERT cells were seeded in a perfusion chamber of an IBIDI microfluidic chip (μ-Slide VI 0.5 Glass Bottom, ibidi GmbH). Chambers were previously coated with poly-D-lysine for 20 min at 37° C. and then cells were seeded at a density of approximately 1-10^6 cells×mL^−1.
For the release experiment, cells were loaded with radioactive substrate […] [^3H]5-HT for 20 min at 37° C. and then perfused with different solutions at constant flow rate (0.6 μL min^−1). […] The cells were flushed using sodium dodecyl sulfate (SDS) to retrieve the residual radioactivity (6 min). […]
Radioactivity was quantified with a beta-scintillation counter (PerkinElmer, Waltham, MA, USA). The released amount of tritiated substrate for each fraction was expressed as the amount of released tritium compared to the amount remaining in the cell at the end of the previous fraction. […]

SERT [4] = biological target: T1, SERT; parameters: host or cells: human platelets (endogenous SERT); conditions: read-out: uptake inhibition by DMT; human platelets expressing SERT; literature value; cited from earlier work
[5] = after treatment with 0.5% HCl at 37° C. for 24 hours, read-out: Uptake inhibition, IC50 values, SERT
[6] = undecomposed compound dissolved in DMSO, no HCl pre-treatment, read-out: Uptake inhibition, IC50 values, SERT

| Compound | IC50 (SERT [2]; [5]) [µM] | IC50 (SERT [2]; [6]) [µM] | stability of the prodrug (in words) [1] | release of DMT / conversion to DMT (in words) ([1]; 37° C.) | also measured |
| --- | --- | --- | --- | --- | --- |
| COC(=O)n1cc(CCN(C)C)c2ccccc21 [Example 8, methyl 3-(2-(dimethylamino)ethyl)-1H-indole-1-carboxylate] | – | – | – | – | release of DMT at pH 7.4 and pH 8.0 ([1]; phosphate buffers (0.1 M) pH 7.4 and pH 8.0, 37° C.): continuous release of DMT |
| CN(C)CCc1cn(S(=O)(=O)C2CC2)c2ccccc12 [Example 13, 2-(1-(cyclopropylsulfonyl)-1H-indol-3-yl)-N,N-dimethylethan-1-amine] | 22.2 | 93.8 | – | – | interaction with the transporter without pre-treatment (in words) (SERT [2]; uptake inhibition, no HCl pre-treatment (DMSO)): interaction with the transporter was scarce |
| CN(C)CCc1cn(C(=O)C(F)(F)F)c2ccccc12 [Example 3, 1-(3-(2-(dimethylamino)ethyl)-1H-indol-1-yl)-2,2,2-trifluoroethan-1-one] | – | – | maximum stability under acidic conditions | releasing DMT rapidly within minutes | degradation of the prodrug ([1]; phosphate buffer (0.1 M) pH 7.4, 37° C.): 100%; degradation of the prodrug ([1]; phosphate buffer (0.1 M) pH 8.0, 37° C.): 100% |
| CN(C)CCc1c[nH]c2cccc(B3OC(C)(C)C(C)(C)O3)c12 [Example 1, N,N-dimethyl-2-(4-(4,4,5,5-tetramethyl-1,3,2-dioxaborolan-2-yl)-1H-indol-3-yl)ethan-1-amine] | 13.6 | 26.7 | maximum stability under acidic conditions | releasing DMT rapidly within minutes | – |
| CN(C)CCc1cn(C(=O)OC(C)(C)C)c2ccccc12 [Example 11, tert-butyl 3-(2-(dimethylamino)ethyl)-1H-indole-1-carboxylate] | – | – | significantly more stable under all tested conditions | Conversion to DMT proceeded efficiently throughout the entire experiment at all pHs | liberation of DMT / conversion under acidic conditions ([1]; 1% HCl solution (pH 1.0), 37° C., approximately 21 hours): remarkably fast release time of two hours |
| CN(C)CCc1cn(C(=O)C(C)(C)C)c2ccccc12 [Example 4, 1-(3-(2-(dimethylamino)ethyl)-1H-indol-1-yl)-2,2-dimethylpropan-1-one] | 8.3 | ~2.1 | – | – | transporter-mediated efflux (release) via SERT (SERT [3]): induces even less efflux; also recorded: yields a lower efflux compared to both DMT and Example 1 |
| CN(C)CCc1c[nH]c2ccccc12 [DMT, N,N-Dimethyltryptamine] | – | – | – | – | IC50 (SERT [2]; Uptake inhibition, IC50 values, SERT, undecomposed compound dissolved in DMSO, no HCl pre-treatment): 12.3 µM; transporter-mediated efflux (release) via SERT (SERT [3]): almost full efficacious release; IC50 (SERT [4]): ~10 µM |
